Assay results: paper PMC5645319, “An Integrin-Targeted, Highly Diffusive Construct for Photodynamic Therapy” (Scientific Reports, 2017)

Experiments:
[1] = Absorption spectroscopy to assess photosensitizer aggregation in water; type: physicochemical; conditions: for Aggregation in water by absorption spectrum: construct at 87.8 µM, compared with EtNBS in acidified methanol
Description: Spectra were acquired using a home-built spectrometer that made use of a white light source for absorption measurements and a 655 nm LED for EtNBS excitation. Transmitted or absorbed light was collected and fiber-delivered to a QE65000 spectrometer (Ocean Optics) for spectral acquisition.

OVCAR5 cells = assay: Uptake in monolayer cell cultures, confocal fluorescence microscopy; type: cell-based
Protocol: (§1) All imaging experiments were carried out on an Olympus FV1000 confocal microscope with a stage-top incubator (Prior) to maintain humidity, 37 °C temperature, and 5% CO2 during imaging sessions. For each sample, imaging was restricted to 15 minutes from the time cells were removed from the incubator to avoid any artifacts related to cell death. Image acquisition parameters were chosen which captured signal from both samples/cell lines without any saturation of signal and were kept uniform between samples to allow for direct one-to-one comparison of signal. These parameters were also used to image cells treated with known concentrations of EtNBS, to allow for relative comparison of uptake against known references. For every imaging experiment and conditions, a minimum of three areas of interests were collected and analyzed.
(§2) Stably transfected OVCAR5 cells overexpressing the alpha5 integrin as well as wild-type OVCAR5 cells were plated as described above in glass-bottom 35 mm culture dishes (P35G-0.170-14-C, MatTek) at a density of 200,000 cells per dish 24 hours prior to the start of experiments. Cells were administered the photosensitizer at a concentration of 10 µM in warmed complete cell culture medium and incubated for 3 hours in a 37 °C incubator under 5% CO2. […]

monolayer OVCAR5 cells [2] = conditions: 5 µM concentration, no light; 'has been observed', no reference given; cited from earlier work
Protocol: To assess the ability of the construct to carry out PDT, monolayer OVCAR5 cells were incubated with the EtNBS construct and illuminated with 660 nm light (Fig. 7). […] This is true even though the construct is more efficient in the generation of reactive radical species. This difference in light dose between the free molecule and its targeted construct, however, is not entirely surprising; similar higher light doses have been found necessary in immunoconjugates based on the benzoporphyrin der ...

monolayer OVCAR5 cells [3] = assay: Photodynamic therapy and dark toxicity in monolayer cultures, MTT viability assay
Protocol: (§4) The MTT assay was used to evaluate cellular viability of PDT-treated monolayer cultures. […] The MTT reagent (Thiazolyl Blue Tetrazolium Bromide, Sigma) was administered to cells in warmed complete cell culture media at a concentration of 1 mg/mL. Growth medium was gently aspirated from wells so as not to remove weakly adhered cells and was replaced with MTT media solution (160 µL). Cells were then returned cells to the 37 °C incubator and kept under 5% CO2 for 60 minutes. After incubating cells, the MTT treatment solution was carefully and completely aspirated from wells, with DMSO then added (180 µL) to extract cellular Formazan. After incubating samples for 15 minutes at room temperature while periodically rocking plates to completely and uniformly dissolve Formazan crystals, Formazan-containing DMSO was aliquoted (50 µL volumes from each well in triplicate) into a 96-well plate alongside wells containing an equal volume of DMSO to be used for background subtraction. The absorbance of Formazan at 540 nm was then measured using a SpectraMax M5 (Molecular Devices) plate reader.
(§5) After averaging measured absorbance values, background-subtraction was carried out and the standard deviation of the experimental values was calculated. For each individual sample group or treatment condition, the background-subtracted average absorbance value was normalized to that of the untreated (“NT”) control group to obtain the normalized cellular viabilities. […] All measurements were performed in triplicate to ensure high quality data collection.
(§6) All steps involving the manipulation of photosensitizers were carried out under subdued lighting to the extent that it was possible to avoid artifacts from unintentional photodynamic effects. Wells within each dish were spaced far apart from each other to ensure minimal light administration cross-talk. All manipulations of media or other culture liquids were done manually, specifically avoiding the use of vacuum aspiration techniques to avoid the unintended removal of weakly adhered cells before, during or after therapy.
(§7) Sequential blocking of integrins with cRGD peptide was achieved by administering a 10-fold excess of cRGD peptide (50 µM) in warmed DPBS to cells and incubating for a duration of 3 hours at 37 °C in a 5% CO2 incubator. Blocking solution was removed and replaced with photosensitizer-containing treatment media without performing a washing step and cells were immediately returned to the incubator for the appropriate time.
(§8) Concentrated stock solutions of photosensitizers were diluted in and administered to cells in warmed complete cell culture media. […] Integrin-dependent PDT efficacy was evaluated using 10 µM photosensitizer doses. The comparison of PEG-dependent enhancement in PDT was evaluated using 5 µM photosensitizer doses. […]

[4] = Reactive oxygen species generation, singlet oxygen sensor green (SOSG) fluorogenic assay
Protocol: (§3) HPF (H36004) and SOSG (S36002) were purchased from Life Technologies and were used as directed by the manufacturer’s protocol. Working solutions were prepared at 10 µM in DPBS or 5 µM TRIS buffer (pH 7.5) for HPF and SOSG, respectively, using 10 µM concentrations of the appropriate photosensitizer. All sample irradiation was carried out using 660 nm-centered LED-generated light (M660L3, Thorlabs) at an irradiance of 100 mW/cm^2. Irradiation of 80 µL sample volumes was carried out in clear plastic 96-well plates, with the emission of the ROS probes measured with a plate reader (SpectraMax m5, Molecular Devices). Experiments were performed in triplicate and experimental values (N = 3) were averaged and background-subtraction was performed.

[5] = Reactive oxygen species generation, hydroxyphenyl fluorescein (HPF) fluorogenic assay; conditions: 10 µM photosensitizer, 660 nm
Protocol: as §3

[6] = test system: OVCAR5 cell line engineered to ectopically overexpress the α5 integrin; assay: Integrin-dependent uptake in monolayer culture, confocal fluorescence microscopy; type: cell-based
Protocol: as §1, §2

monolayer OVCAR5 cells [7] = test system: monolayer OVCAR5 cells
Protocol: as §4, §5, §6, §7, §8

CCNc1cc2sc3cc(=[N+](CC)CC)ccc-3nc2c2ccccc12.[Cl-] [EtNBS]
Aggregation in water by absorption spectrum (Supplementary Fig. 3) ([1]; 5 µM concentration): displays a blue shift | Aggregation in water by absorption spectrum [1]: formation of aggregates distorts the spectrum | Photosensitizer uptake of free EtNBS relative to the construct (OVCAR5 cells; relative comparison): up to two orders of magnitude greater uptake | Drop in viability due solely to dark toxicity (monolayer OVCAR5 cells [2]): 70%

N=C(N)NCCC[C@@H]1NC(=O)[C@H](CCCCN)NC(=O)[C@@H](Cc2ccccc2)NC(=O)[C@H](CC(=O)O)NC(=O)CNC1=O [cRGD, cRGDfK, reference compound]
Toxicity of cRGD administered solely to cells (monolayer OVCAR5 cells [3]; cRGD only, not exposed to light, MTT): did not result in any measured toxicity

DOTA-Lys(ETNBS)-Lys(PEG5K)-β-Ala-Cys(DBCO-PEG4-cRGD) (head to tail) [EtNBS construct]
Aggregation in water by absorption spectrum [1]: does not show aggregation | ROS generation measured by SOSG versus free EtNBS ([4]; 10 µM photosensitizer, 660 nm, 100 mW/cm^2, all light doses tested (5–40 J/cm^2), triplicate): greater than that of free EtNBS | Yield of singlet oxygen (SOSG) relative to free EtNBS ([4]; equimolar 10 µM photosensitizer, 5 µM SOSG in TRIS buffer pH 7.5, 660 nm LED, 100 mW/cm^2, highest light dose (40 J/cm^2), mean of triplicate): ~100% | Enhancement of HPF fluorescence versus free EtNBS ([5]; 10 µM HPF in DPBS, 100 mW/cm^2, dose of 50 J/cm^2, triplicate): two-fold enhancement | Photodynamic activity measured by HPF versus free EtNBS ([5]; 100 mW/cm^2, all light doses (5–100 J/cm^2), triplicate): considerably greater photodynamic activity | Uptake in alpha5 integrin overexpressing OVCAR5 versus OVCAR5 ([6]; 10 µM, 3 hours incubation, 37 °C, fluorescence excited at 635 nm, 670 nm emission): significantly greater | Uptake of PEGylated versus unPEGylated construct in overexpressing cells ([6]; alpha5 integrin overexpressing OVCAR5 cells): take up more | Photosensitizer concentration within the cells relative to administered free EtNBS (OVCAR5 cells; EtNBS references at 250 nM and 500 nM): many times lower | Toxicity without light, small scale experiments (monolayer OVCAR5 cells [7]): equally harmless | Reduction in viability after PDT (monolayer OVCAR5 cells [3]; 5 µM photosensitizer, 3 hour incubation, 660 nm at 100 mW/cm^2, 100 J/cm^2 light dose, MTT 24 hours post-treatment, triplicate): 60% | PDT effect after pre-incubation with free cRGD (monolayer OVCAR5 cells [3]; pre-treated with cRGD 50 µM (tenfold molar excess) 3 hours, then construct 5 µM, 100 J/cm^2 at 660 nm, MTT): protected the cells against PDT
